Like-named read-outs stand apart in the source and are kept apart here.
Key:
[1] = system: human SKM-1 acute myeloid leukemia cells; test: SKM-1 antiproliferation cell-based assay (ATPlite); conditions: Homo sapiens
Method in brief: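 Log-phase cells in RPMI 1640/15% FBS were seeded at 34722 cells/mL and exposed for 4 days to nine-concentration DMSO serial dilutions in triplicate. Viability was read as ATP luminescence (ATPlite 1step), and IC50 values came from variable-slope non-linear regression.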

[2] = target: T1, human BRD4 bromodomain II (Homo sapiens, UniProt O60885); test: Bromodomain binding assay (AlphaScreen), BRD4 BDII
T1 construct: human BRD4 bromodomain II [based on Genbank NM_058243, residues 349-460]; host or cells: E. coli
Method in brief: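 E. coli-expressed N-terminal His6-tagged human BRD4 BDII (residues 349-460) or BDI (residues 44-170) was preincubated 30 min at room temperature with compound (10-point, 3-fold) in pH 7.5 HEPES buffer, 1% DMSO. Displacement of biotinylated tetra-acetylated H4 1-21 peptide was read by AlphaScreen, and IC50 came from curve fitting.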

[3] = SKM-1, SKM-1 antiproliferation assay
[4] = BRD4 BDII AlphaScreen assay, read-out: BRD4 BD2 IC50
[5] = SKM-1, 96 h, SKM-1 antiproliferation assay, 4 days, Table C2
[6] = AlphaScreen assay, Table C2, read-out: BRD4 BDII IC50

SMILES | GI50 [1, 3] [nM] | IC50 [2, 4] [nM] | GI50 [1, 5] [nM] | IC50 [2, 6] [nM]
COc1ncc(-c2nc(C)cc(-c3ccc(-n4ccn(C)c4=O)c(Cl)c3)c2O)cc1N1CC[C@]2(CCN2C(C)C)C1 [Example 1022, (R)-1-(2-chloro-4-(3-hydroxy-5′-(1-isopropyl-1,6-diazaspiro[3.4]octan-6-yl)-6'-methoxy-6-methyl-[2,3′-bipyridin]-4-yl)phenyl)-3-methyl-1,3-dihydro-2H-imidazol-2-one] | 0.3 to 30 | 0.01 to 1 |  | 
CC(=O)Nc1ccc(-c2cc(F)cc(-c3ccc(F)c(N4CCNCC4)c3)c2O)cc1F [Example 237, N-(3,4″,5′-trifluoro-2′-hydroxy-3″-(piperazin-1-yl)-[1,1′:3′,1″-terphenyl]-4-yl)acetamide] |  |  | 30 to 300 | 0.01 to 1
O=C1NCCCN1c1ccc(-c2cc(F)cc(-c3ccnc(N4CCNCC4)c3)c2O)cc1F [Example 278, 1-(3,5′-difluoro-2′-hydroxy-3′-(2-(piperazin-1-yl)pyridin-4-yl)-[1,1′-biphenyl]-4-yl)tetrahydropyrimidin-2(1H)-one] |  |  | 300 to 3000 | 10 to 100
CC(=O)Nc1ccc(-c2cccc(-c3ccc(F)c(N4CCNCC4)c3)c2O)cc1F [Example 182, N-(3,4″-difluoro-2′-hydroxy-3(piperazin-1-yl)-[1,1′:3′,1″-terphenyl]-4-yl)acetamide] |  |  | 300 to 3000 | 1 to 10
Cc1cc(-c2cc(F)cc(-c3ccc(-n4ccn(C)c4=O)c(Cl)c3)c2O)cc(N2CC[C@H](N)C2)n1 [Example 517, (S)-1-(3′-(2-(3-aminopyrrolidin-1-yl)-6-methylpyridin-4-yl)-3-chloro-5′-fluoro-2′-hydroxy-[1,1′-biphenyl]-4-yl)-3-methyl-1H-imidazol-2(3H)-one] |  |  | 0.3 to 30 | 0.01 to 1
CN1CCN(c2ccc(-c3cccc(-c4ccnc(N5CCC(N)CC5)c4)c3O)cc2Cl)C1=O [Example 300, 1-(3′-(2-(4-aminopiperidin-1-yl)pyridin-4-yl)-3-chloro-2′-hydroxy-[1,1′-biphenyl]-4-yl)-3-methylimidazolidin-2-one] |  |  | 30 to 300 | 1 to 10
CC(C)N1CCN(c2cccc(-c3cc(F)cc(-c4ccc(-n5ccn(C)c5=O)c(Cl)c4)c3O)c2)CC1 [Example 699, 1-(3-chloro-5′-fluoro-2′-hydroxy-3″-(4-isopropylpiperazin-1-yl)-[1,1′:3′,1″-terphenyl]-4-yl)-3-methyl-1H-imidazol-2(3H)-one] |  |  | 0.3 to 30 | 0.01 to 1
[2H]C([2H])([2H])Oc1ncc(-c2cc(F)cc(-c3ccc(-n4ccn(C)c4=O)c(Cl)c3)c2O)cc1N1CCN(C(C)(C)C)CC1 [Example 926, 1-(3′-(5-(4-(tert-Butyl)piperazin-1-yl)-6-(methoxy-d3)pyridin-3-yl)-3-chloro-5′-fluoro-2′-hydroxy-[1,1′-biphenyl]-4-yl)-3-methyl-1,3-dihydro-2H-imidazol-2-one] | 0.3 to 30 | 0.01 to 1 |  | 
[2H]C([2H])([2H])n1ccn(-c2ccc(-c3cc(F)cc(-c4cnc(OC)c(N5CCN(C(C)(C)C)CC5)c4)c3O)cc2Cl)c1=O [Example 938, 1-(3′-(5-(4-(tert-butyl)piperazin-1-yl)-6-methoxypyridin-3-yl)-3-chloro-5′-fluoro-2′-hydroxy-[1,1′-biphenyl]-4-yl)-3-(methyl-d3)-1,3-dihydro-2H-imidazol-2-one] | 0.3 to 30 | 1 to 10 |  | 
CC(C)N1CCN(c2cc(-c3cc(F)cc(-c4ccc(-n5ccn(C)c5=O)c(Cl)c4)c3O)cnc2C(F)(F)F)CC1 [Example 804, 1-(3-chloro-5′-fluoro-2′-hydroxy-3′-(5-(4-isopropylpiperazin-1-yl)-6-(trifluoromethyl)pyridin-3-yl)-[1,1′-biphenyl]-4-yl)-3-methyl-1H-imidazol-2(3H)-one] |  |  | 0.3 to 30 | 1 to 10
Cc1cc(-c2ccc(-n3ccn(C)c3=O)c(Cl)c2)c(O)c(-c2cc(N3CCNCC3)c3nccnc3c2)c1 [Example 562, 1-(3-chloro-2′-hydroxy-5′-methyl-3′-(8-(piperazin-1-yl)quinoxalin-6-yl)-[1,1′-biphenyl]-4-yl)-3-methyl-1H-imidazol-2(3H)-one] |  |  | 0.3 to 30 | 0.01 to 1
Cc1cc(-c2ccc(-n3ccn(C)c3=O)c(Cl)c2)c(O)c(-c2cc(F)cc(N3CCN(C(C)(C)C)CC3)c2)n1 [Example 1014, 1-(4-(2-(3-(4-(tert-butyl)piperazin-1-yl)-5-fluorophenyl)-3-hydroxy-6-methylpyridin-4-yl)-2-chlorophenyl)-3-methyl-1H-imidazol-2(3H)-one] | 0.3 to 30 | 0.01 to 1 |  | 
Cn1cc(-c2cc(F)cc(-c3ccc(-n4ccn(C)c4=O)c(Cl)c3)c2O)cc(N2CCC(C)(O)C2)c1=O (centres unmarked) [Example 725, 5-(3′-chloro-5-fluoro-2-hydroxy-4′-(3-methyl-2-oxo-2,3-dihydro-1H-imidazol-1-yl)-[1,1′-biphenyl]-3-yl)-3-(3-hydroxy-3-methylpyrrolidin-1-yl)-1-methylpyridin-2(1H)-one] |  |  | 30 to 300 | 1 to 10
Cn1ccn(-c2ccc(-c3cc(F)cc(-c4cnc(N)c(N5CCN(C(C)(C)C)CC5)c4)c3O)cc2Cl)c1=O [Example 914, 1-(3′-(6-amino-5-(4-(tert-butyl)piperazin-1-yl)pyridin-3-yl)-3-chloro-5′-fluoro-2′-hydroxy-[1,1′-biphenyl]-4-yl)-3-methyl-1H-imidazol-2(3H)-one] | 0.3 to 30 | 1 to 10 |  | 
CCc1cc(-c2cc(F)cc(-c3ccc(-n4ccn(C)c4=O)c(Cl)c3)c2O)cc(N2CCN(C(C)C)CC2)n1 [Example 704, 1-(3-chloro-3′-(2-ethyl-6-(4-isopropylpiperazin-1-yl)pyridin-4-yl)-5′-fluoro-2′-hydroxy-[1,1′-biphenyl]-4-yl)-3-methyl-1H-imidazol-2(3H)-one] |  |  | 0.3 to 30 | 0.01 to 1
CCc1cc(-c2cccc(-c3ccc(N4CCN(C)C4=O)c(Cl)c3)c2O)cc(N2CCNCC2)n1 [Example 374, 1-(3-chloro-3′-(2-ethyl-6-(piperazin-1-yl)pyridin-4-yl)-2′-hydroxy-[1,1′-biphenyl]-4-yl)-3-methylimidazolidin-2-one] |  |  | 300 to 3000 | 1 to 10
Cn1ccn(-c2ccc(-c3cc(F)cc(-c4ccnc(N5CC6CCC(C5)C6(C)N)c4)c3O)cc2Cl)c1=O (centres unmarked) [Example 757, 1-(3′-(2-(8-amino-8-methyl-3-azabicyclo[3.2.1]octan-3-yl)pyridin-4-yl)-3-chloro-5′-fluoro-2′-hydroxy-[1,1′-biphenyl]-4-yl)-3-methyl-1H-imidazol-2(3H)-one] |  |  | 30 to 300 | 0.01 to 1
CC(C)N1CCN(c2cc(-c3cc(F)cc(-c4ccc(-n5ccn(C)c5=O)c(Cl)c4)c3O)cnc2Cl)CC1 [Example 787, 1-(3-chloro-3′-(6-chloro-5-(4-isopropylpiperazin-1-yl)pyridin-3-yl)-5′-fluoro-2′-hydroxy-[1,1′-biphenyl]-4-yl)-3-methyl-1H-imidazol-2(3H)-one] |  |  | 0.3 to 30 | 0.01 to 1
Cn1ccn(-c2ccc(-c3cc(F)cc(-c4cc(N5CCN6CCCC6C5)c5cn[nH]c5c4)c3O)cc2Cl)c1=O (centres unmarked) [Example 606, 1-(3-chloro-5′-fluoro-3′-(4-(hexahydropyrrolo[1,2-a]pyrazin-2(1H)-yl)-1H-indazol-6-yl)-2′-hydroxy-[1,1′-biphenyl]-4-yl)-3-methyl-1H-imidazol-2(3H)-one] |  |  | 0.3 to 30 | 0.01 to 1
CN1CCN(c2ccc(-c3cc(F)cc(-c4ccnc(N5CCNC5=O)c4)c3O)cc2Cl)C1=O [Example 354, 1-(3-chloro-5′-fluoro-2′-hydroxy-3′-(2-(2-oxoimidazolidin-1-yl)pyridin-4-yl)-[1,1′-biphenyl]-4-yl)-3-methylimidazolidin-2-one] |  |  | ≥ 3000 | > 100
Cc1ncc(-c2cc(F)cc(-c3ccc(N4CCN(C)C4=O)c(Cl)c3)c2O)cc1N1CCNCC1 [Example 388, 1-(3-chloro-5′-fluoro-2′-hydroxy-3′-(6-methyl-5-(piperazin-1-yl)pyridin-3-yl)-[1,1′-biphenyl]-4-yl)-3-methylimidazolidin-2-one] |  |  | 30 to 300 | 1 to 10
CC(=O)Nc1ccc(-c2cccc(-c3cc(Cl)nc(N4CCNCC4)c3)c2O)cc1F [Example 226, N-(3′-(2-chloro-6-(piperazin-1-yl)pyridin-4-yl)-3-fluoro-2′-hydroxy-[1,1′-biphenyl]-4-yl)acetamide] |  |  | 300 to 3000 | 1 to 10
COc1cc(-c2ccc(-n3ccn(C)c3=O)c(Cl)c2)c(O)c(-c2cccc(N3CCN(C(C)(C)C)CC3)c2)n1 [Example 1028, 1-(4-(2-(3-(4-(tert-Butyl)piperazin-1-yl)phenyl)-3-hydroxy-6-methoxypyridin-4-yl)-2-chlorophenyl)-3-methyl-1H-imidazol-2(3H)-one] | 0.3 to 30 | 1 to 10 |  | 
CN1CCN(c2ccc(-c3cccc(-c4ccc(C#N)c(N5CCNCC5)c4)c3O)cc2Cl)C1=O [Example 308, 3″-chloro-2′-hydroxy-4″-(3-methyl-2-oxoimidazolidin-1-y1)-3-(piperazin-1-yl)-[1,1′:3′,1″-terphenyl]-4-carbonitrile] |  |  | 30 to 300 | 1 to 10
CN1CCN(c2ccc(-c3cc(F)cc(-c4cc(N5CCC[C@H](N)C5)c(=O)n(C)c4)c3O)cc2Cl)C1=O [Example 378, (S)-3-(3-aminopiperidin-1-yl)-5-(3′-chloro-5-fluoro-2-hydroxy-4′-(3-methyl-2-oxoimidazolidin-1-yl)-[1,1′-biphenyl]-3-yl)-1-methylpyridin-2(1H)-one] |  |  | 30 to 300 | 1 to 10
